Results as given in BindingDB's records for patent US20240226107 (Simcere Zaiming Pharmaceutical Co., 2024).

Experiments:
Assay in all cases: Assay for Inhibition of Compounds Provided in the Present Application on CYP Enzymes
[1] = molecular target: Cytochrome P450 2C9 (Homo sapiens, UniProt P11712)
Experimental: (§1) Typical substrate metabolic responses of five major human CYP subtypes (CYP1A2, CYP2C9, CYP2C19, CYP2D6, CYP3A4) were evaluated using 150-donor pooled human liver microsomes (purchased from Corning, Cat. No.: 452117). The influence of different concentrations of each compound to be tested on metabolic responses of phenacetin (CYP1A2), diclofenac sodium (CYP2C9), S-mephenytoin (CYP2C19), bufuralol hydrochloride (CYP2D6), and midazolam (CYP3A4) was determined by liquid chromatography-mass spectrometry (LC/MS/MS). The reaction system (200 μL) (100 mmol/L phosphate buffer, pH 7.4, containing DMSO, acetonitrile and methanol at a volume ratio of 0.3%:0.6%:0.1%) of 30 μM phenacetin, 10 μM diclofenac sodium, 35 μM S-mephenytoin, 5 μM bufuralol hydrochloride, 3 μM midazolam, 1 mM reduced nicotinamide adenine dinucleotide phosphate (NADPH), the compound to be tested (at concentrations of 0.1, 0.3, 1, 3, 10, 30 μmol/L, respectively), or positive compound or blank control, with pooled human liver microsomes (0.2 mg/mL) was incubated at 37° C. for 5 min. Then 200 μL of acetonitrile solution containing 3% formic acid and 40 nM internal standard verapamil was added and centrifuged at 4000 rpm for 50 min. The mixture was cooled on ice for 20 min and centrifuged at 4000 rpm for 20 min to precipitate the protein. Then 200 μL of supernatant was analyzed by LC-MS/MS.The peak area was calculated from the chromatogram.

[2] = molecular target: T1, Cytochrome P450 1A2 (Homo sapiens, UniProt P05177)
T1 sequence (P05177 whole entry): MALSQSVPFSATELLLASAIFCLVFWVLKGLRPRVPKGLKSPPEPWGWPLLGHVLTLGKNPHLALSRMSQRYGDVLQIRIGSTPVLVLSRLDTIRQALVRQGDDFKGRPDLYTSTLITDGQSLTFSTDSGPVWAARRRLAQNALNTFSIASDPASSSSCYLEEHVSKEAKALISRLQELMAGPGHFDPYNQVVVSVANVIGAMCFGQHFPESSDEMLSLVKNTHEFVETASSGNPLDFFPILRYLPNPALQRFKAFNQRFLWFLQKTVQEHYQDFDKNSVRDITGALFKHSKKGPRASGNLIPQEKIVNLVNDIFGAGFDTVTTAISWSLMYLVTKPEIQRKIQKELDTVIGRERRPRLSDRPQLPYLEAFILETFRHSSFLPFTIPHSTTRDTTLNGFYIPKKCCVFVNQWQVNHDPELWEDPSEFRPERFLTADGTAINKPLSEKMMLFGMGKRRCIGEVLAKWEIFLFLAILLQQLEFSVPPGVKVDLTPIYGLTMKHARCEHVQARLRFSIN
Experimental: as §1

[3] = molecular target: Cytochrome P450 2C19 (Homo sapiens, UniProt P33261)
Experimental: as §1

Cytochrome P450 2C19, sequence (P33261 whole entry): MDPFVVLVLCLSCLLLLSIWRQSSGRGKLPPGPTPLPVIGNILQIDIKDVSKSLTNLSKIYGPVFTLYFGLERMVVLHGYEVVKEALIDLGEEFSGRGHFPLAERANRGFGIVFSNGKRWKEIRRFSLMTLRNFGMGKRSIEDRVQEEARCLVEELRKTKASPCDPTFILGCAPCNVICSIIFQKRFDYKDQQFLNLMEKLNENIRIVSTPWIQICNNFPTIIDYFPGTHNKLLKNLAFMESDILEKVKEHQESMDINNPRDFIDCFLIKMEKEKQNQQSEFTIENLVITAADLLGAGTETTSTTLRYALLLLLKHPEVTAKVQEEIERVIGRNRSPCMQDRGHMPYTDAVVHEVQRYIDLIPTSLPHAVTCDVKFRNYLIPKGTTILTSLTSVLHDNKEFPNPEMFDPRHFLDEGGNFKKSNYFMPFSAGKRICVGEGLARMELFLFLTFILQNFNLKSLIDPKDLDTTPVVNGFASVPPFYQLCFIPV
Cytochrome P450 2C9, sequence (P11712 whole entry): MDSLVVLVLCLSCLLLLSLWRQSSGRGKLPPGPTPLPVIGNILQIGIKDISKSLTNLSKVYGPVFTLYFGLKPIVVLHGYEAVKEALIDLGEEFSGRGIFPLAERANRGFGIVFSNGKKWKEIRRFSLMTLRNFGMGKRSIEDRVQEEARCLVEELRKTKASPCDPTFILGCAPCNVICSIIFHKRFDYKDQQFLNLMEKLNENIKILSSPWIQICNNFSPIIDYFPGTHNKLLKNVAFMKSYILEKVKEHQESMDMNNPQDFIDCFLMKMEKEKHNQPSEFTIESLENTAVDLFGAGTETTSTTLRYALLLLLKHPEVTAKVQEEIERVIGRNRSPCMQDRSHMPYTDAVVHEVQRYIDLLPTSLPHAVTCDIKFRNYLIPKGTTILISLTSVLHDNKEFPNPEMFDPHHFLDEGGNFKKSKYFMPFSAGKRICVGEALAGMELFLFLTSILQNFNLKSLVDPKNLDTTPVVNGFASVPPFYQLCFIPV

COc1nccc(C2CC2)c1-c1ncc2c(n1)N(Cc1ccc(-c3nc(C(F)(F)F)cn3C)cc1)CC(=O)N2C [US20240226107, Compound 11] showed an IC50 [1] of 28.9 µM, an IC50 [2] of over 30 µM and an IC50 [3] of 17.1 µM.
